Assay results as given in patent publication US5488060A, “Substituted thiadiazoles, compositions containing them and their use as antimicrobial and marine antifouling agents” (The Dow Chemical Company, priority 1994, dated 1996).
Converted amounts (≈) assume the structure as drawn. Where two headings read alike, the source gives them in different places.

Experiments:
Format in all cases: cell-based
Escherichia coli (Ec) = assay: Minimum inhibitory concentration (MIC) in nutrient agar, Escherichia coli
How it was run: (§1)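 MIC is determined by agar incorporation into neutral and alkaline nutrient agar, with compound at final 500 to 1.0 ppm added from a 1% acetone–water solution. Plates are inoculated with 10^8 CFU/mL cultures and read after 48 h at 30° C.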

[1] = tested on: Penicillium chrysogenum (Pc); assay: Minimum inhibitory concentration (MIC) in malt yeast agar, Penicillium chrysogenum; settings: pH 5.5; malt yeast agar, 30° C., 72 hours for fungi; read-out: Minimum Inhibitory Concentration, PC
How it was run: (§2)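 Growth is scored at 30 °C after 72 h for fungi and 48 h for yeast on malt yeast agar (pH 5.5) containing compound at final levels from 500 down to zero ppm. Organisms are grown 7 days at 30 °C, suspended in saline with octylphenoxy polyethoxy ethanol, and diluted 1:9 before replicator inoculation.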

[2] = tested on: Salmonella choleraesuis (Se); assay: Minimum inhibitory concentration (MIC) in nutrient agar, Salmonella choleraesuis; settings: Salmonella enterica
How it was run: as §1

Trichoderma viride (Tv) = assay: Minimum inhibitory concentration (MIC) in malt yeast agar, Trichoderma viride; settings: 72 h, pH 5.5, read-out: Minimum Inhibitory Concentration, Tv
How it was run: as §2

[3] = tested on: Pseudomonas aeruginosa (Pa); assay: Minimum inhibitory concentration (MIC) in nutrient agar, Pseudomonas aeruginosa; settings: 30° C., 48 hours, read-out: Minimum Inhibitory Concentration, Pa
How it was run: as §1

[4] = tested on: Klebsiella pneumoniae (Kp); assay: Minimum inhibitory concentration (MIC) in nutrient agar, Klebsiella pneumoniae
How it was run: as §1

[5] = tested on: Pseudomonas aeruginosa (PRD-10); assay: Minimum inhibitory concentration (MIC) in nutrient agar, Pseudomonas aeruginosa PRD-10
How it was run: as §1

[6] = tested on: Staphylococcus aureus (Sa); assay: Minimum inhibitory concentration (MIC) in nutrient agar, Staphylococcus aureus
How it was run: as §1

Fusarium oxysporum (Fo) = assay: Minimum inhibitory concentration (MIC) in malt yeast agar, Fusarium oxysporum; settings: 72 h, pH 5.5, read-out: Minimum Inhibitory Concentration, Fo
How it was run: as §2

Aspergillus niger (An) = assay: Minimum inhibitory concentration (MIC) in malt yeast agar, Aspergillus niger
How it was run: as §2

Bacillus subtilis (Bs) = assay: Minimum inhibitory concentration (MIC) in nutrient agar, Bacillus subtilis
How it was run: as §1

[7] = tested on: Enterobacter aerogenes (Ea); assay: Minimum inhibitory concentration (MIC) in nutrient agar, Enterobacter aerogenes; settings: Klebsiella aerogenes, 48 h
How it was run: as §1

[8] = tested on: Saccharomyces cerevisiae (Sc); assay: Minimum inhibitory concentration (MIC) in malt yeast agar, Saccharomyces cerevisiae; settings: pH 5.5, malt yeast agar, 30° C., 48 hours for yeast, read-out: Minimum Inhibitory Concentration, SC
How it was run: as §2

Candida albicans (Ca) = assay: Minimum inhibitory concentration (MIC) in malt yeast agar, Candida albicans; settings: 48 h, pH 5.5, read-out: Minimum Inhibitory Concentration, Ca
How it was run: as §2

Proteus vulgaris (Pv) = assay: Minimum inhibitory concentration (MIC) in nutrient agar, Proteus vulgaris; settings: 48 h
How it was run: as §1

[9] = tested on: Aureobasidium pullulan (Ap); assay: Minimum inhibitory concentration (MIC) in malt yeast agar, Aureobasidium pullulan; settings: pH 5.5; malt yeast agar, 30° C.; read-out: Minimum Inhibitory Concentration, Ap
How it was run: as §2

[10] = 48 h, pH 6.8, read-out: Minimum Inhibitory Concentration, Ec
[11] = 48 h, pH 6.8, read-out: Minimum Inhibitory Concentration, SC
[12] = 48 h, pH 8.2, read-out: Minimum Inhibitory Concentration, Kp
[13] = pH 6.8, nutrient agar, 30° C., 48 hours, read-out: Minimum Inhibitory Concentration, Kp
[14] = 48 h, pH 8.2, read-out: Minimum Inhibitory Concentration, PRD
[15] = pH 6.8, nutrient agar, 30° C., 48 hours, read-out: Minimum Inhibitory Concentration, Sa
[16] = pH 8.2, nutrient agar, 30° C., 48 hours, read-out: Minimum Inhibitory Concentration, Sa
[17] = 48 h, pH 8.2, read-out: Minimum Inhibitory Concentration, Bs
[18] = pH 6.8, nutrient agar, 30° C., 48 hours, read-out: Minimum Inhibitory Concentration, Bs
[19] = pH 6.8, read-out: Minimum Inhibitory Concentration, Ea
[20] = pH 8.2, read-out: Minimum Inhibitory Concentration, Ea
[21] = pH 6.8, read-out: Minimum Inhibitory Concentration, Pv
[22] = pH 8.2, read-out: Minimum Inhibitory Concentration, Pv
[23] = pH 8.2, nutrient agar, 30° C., 48 hours, read-out: Minimum Inhibitory Concentration, Ec
[24] = 48 h, pH 8.2, read-out: Minimum Inhibitory Concentration, SC
[25] = 48 h, pH 6.8, read-out: Minimum Inhibitory Concentration, PRD
[26] = 72 h, pH 5.5, read-out: Minimum Inhibitory Concentration, An

| Structure (SMILES) | MIC (Escherichia coli (Ec); [10]) | MIC [1] | MIC [2, 11] | MIC (Trichoderma viride (Tv)) | MIC ([3]; pH 6.8, nutrient agar) | MIC ([3]; pH 8.2, nutrient agar) | MIC [4, 12] | MIC [4, 13] | MIC [5, 14] | MIC [6, 15] | MIC [6, 16] | MIC (Fusarium oxysporum (Fo)) | MIC (Bacillus subtilis (Bs); [17]) | MIC [7, 19] | MIC [7, 20] | MIC [8] | MIC (Candida albicans (Ca)) | MIC (Proteus vulgaris (Pv); [21]) | MIC (Proteus vulgaris (Pv); [22]) | MIC [9] | also measured |
| --- | --- | --- | --- | --- | --- | --- | --- | --- | --- | --- | --- | --- | --- | --- | --- | --- | --- | --- | --- | --- | --- |
| Cc1ccc(-c2nsnc2SCSC#N)cc1 [Example XXVII, 4-(4-Methylphenyl)-3-thiocyanatomethylthio-1,2,5-thiadiazole] | 500 µg/mL (≈ 1790 µM) | 9 µg/mL (≈ 32.2 µM) | 500 µg/mL (≈ 1790 µM) | 100 µg/mL (≈ 358 µM) | 500 µg/mL (≈ 1790 µM) | 500 µg/mL (≈ 1790 µM) | 500 µg/mL (≈ 1790 µM) | 500 µg/mL (≈ 1790 µM) | 500 µg/mL (≈ 1790 µM) | 250 µg/mL (≈ 895 µM) | 25 µg/mL (≈ 89.5 µM) | 25 µg/mL (≈ 89.5 µM) | 25 µg/mL (≈ 89.5 µM) | 500 µg/mL (≈ 1790 µM) | 500 µg/mL (≈ 1790 µM) | 9 µg/mL (≈ 32.2 µM) | 50 µg/mL (≈ 179 µM) | 500 µg/mL (≈ 1790 µM) | 500 µg/mL (≈ 1790 µM) | 9 µg/mL (≈ 32.2 µM) | MIC (Escherichia coli (Ec); 48 h, pH 8.2, read-out: Minimum Inhibitory Concentration, Ec): 500 µg/mL (≈ 1790 µM); MIC ([2]; pH 8.2, nutrient agar, 30° C., 48 hours, read-out: Minimum Inhibitory Concentration, SC): 250 µg/mL (≈ 895 µM); MIC ([5]; pH 6.8, nutrient agar, 30° C., 48 hours, read-out: Minimum Inhibitory Concentration, PRD): 250 µg/mL (≈ 895 µM); MIC (Aspergillus niger (An); pH 5.5, malt yeast agar, 30° C., 72 hours for fungi, read-out: Minimum Inhibitory Concentration, An): 9 µg/mL (≈ 32.2 µM); MIC (Bacillus subtilis (Bs); [18]): 25 µg/mL (≈ 89.5 µM) |
| N#CSCSc1nsnc1-c1cccs1 [Example XXX, 4-(2-Thiophene)-3-thiocyanatomethylthio-1,2,5-thiadiazole] | 500 µg/mL (≈ 1840 µM) | 9 µg/mL (≈ 33.2 µM) | 500 µg/mL (≈ 1840 µM) | 250 µg/mL (≈ 921 µM) | 500 µg/mL (≈ 1840 µM) | > 500 µg/mL | > 500 µg/mL | 500 µg/mL (≈ 1840 µM) | > 500 µg/mL | 500 µg/mL (≈ 1840 µM) |  | 100 µg/mL (≈ 368 µM) | 500 µg/mL (≈ 1840 µM) | 500 µg/mL (≈ 1840 µM) | > 500 µg/mL | 9 µg/mL (≈ 33.2 µM) | 100 µg/mL (≈ 368 µM) | 500 µg/mL (≈ 1840 µM) | > 500 µg/mL | 25 µg/mL (≈ 92.1 µM) | MIC (Escherichia coli (Ec); [23]): 250 µg/mL (≈ 921 µM); MIC [2, 24]: > 500 µg/mL; MIC [5, 25]: 500 µg/mL (≈ 1840 µM); MIC ([6]; 48 h, pH 8.2, read-out: Minimum Inhibitory Concentration, Sa): > 500 µg/mL; MIC (Aspergillus niger (An); [26]): 50 µg/mL (≈ 184 µM); MIC (Bacillus subtilis (Bs); 48 h, pH 6.8, read-out: Minimum Inhibitory Concentration, Bs): 500 µg/mL (≈ 1840 µM) |
| N#CSCSc1nsnc1-c1cccnc1 [Example XXXI, 4-(3-Pyridyl)-3-thiocyanatomethylthio-1,2,5-thiadiazole] | 500 µg/mL (≈ 1880 µM) | 9 µg/mL (≈ 33.8 µM) | 500 µg/mL (≈ 1880 µM) | 50 µg/mL (≈ 188 µM) | 500 µg/mL (≈ 1880 µM) | > 500 µg/mL | > 500 µg/mL | 500 µg/mL (≈ 1880 µM) | > 500 µg/mL | 100 µg/mL (≈ 375 µM) | 50 µg/mL (≈ 188 µM) | 25 µg/mL (≈ 93.9 µM) | 25 µg/mL (≈ 93.9 µM) | 500 µg/mL (≈ 1880 µM) | > 500 µg/mL | 9 µg/mL (≈ 33.8 µM) | 25 µg/mL (≈ 93.9 µM) | 500 µg/mL (≈ 1880 µM) | > 500 µg/mL | 9 µg/mL (≈ 33.8 µM) | MIC (Escherichia coli (Ec); [23]): 250 µg/mL (≈ 939 µM); MIC [2, 24]: > 500 µg/mL; MIC [5, 25]: 500 µg/mL (≈ 1880 µM); MIC (Aspergillus niger (An); [26]): 25 µg/mL (≈ 93.9 µM); MIC (Bacillus subtilis (Bs); [18]): 50 µg/mL (≈ 188 µM) |
